We go through 18 compounds from patent US20240059691A1 (KALVISTA PHARMACEUTICALS LIMITED, priority 2020, published 2024).

One series concerns the target Human Factor XIIa (Homo sapiens (Human), UniProt P00748). The series can be described thus: Determination of FXIIa inhibition (fluorogenic substrate H-DPro-Phe-Arg-AFC, IC50 assay). The class given is biochemical. To be noted: substrate H-DPro-Phe-Arg-AFC at Km, 25° C.; class scale A-G. In a few lines: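 IC50 derived from % remaining activity, taken as the linear fluorescence rate over a 5 min read at 25° C. Substrate H-DPro-Phe-Arg-AFC was used at its Km (Michaelis-Menten) with human FXIIa and serial compound dilutions, 25° C.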

The target in the next series is Plasma Kallikrein (Homo sapiens (Human), UniProt P03952). Description: Determination of related protease inhibition: Plasma Kallikrein (fluorogenic substrate at Km). The class given is biochemical. To be noted: 25° C., read-out: IC50 (human PKal). Summed up:
(§1)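 IC50 values derive from the linear rate of fluorescence increase, normalised to uninhibited enzyme as 100% activity. Each human protease was run against its fluorogenic substrate at Km concentration with varying compound levels, with product fluorescence followed over 5 min at 25 °C.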

Series [1] is described as follows: Pharmacokinetics following a single intravenous dose and a single oral dose in male Sprague-Dawley rats (oral bioavailability, half-life). The format is in vivo. Conditions: rat, plasma, 10% DMSO/10% Cremophor EL/80% SWFI; for bioavailability: read-out: F % (oral bioavailability). As to the method:
Pharmacokinetic studies of the compounds in Table 16 were performed to assess the pharmacokinetics following a single intravenous dose and a single oral dose in male Sprague-Dawley rats. Two rats were given a single intravenous dose of 1 mL/kg of a nominal 1 mg/mL (1 mg/kg) composition of test compound in 10% DMSO/10% Cremophor EL/80% SWFI vehicle. Example 2191 was dosed at 1 mL/kg of a nominal 2 mg/mL (2 mg/kg) using the same vehicle.
Two rats were given a single oral dose of 5 mL/kg of a nominal 1 mg/mL (5 mg/kg) composition of test compound in 10% DMSO/10% Cremophor EL/80% SWFI vehicle. Example 2191 was dosed at 5 mL/kg of a nominal 2 mg/mL (10 mg/kg) using the same vehicle.
Following intravenous dosing, blood samples were collected over a period of 12 h. Sample times were 2, 5, 15 and 30 min then 1, 2, 4, 6, and 12 h. Following oral dosing, blood samples were collected over a period of 24 h. Sample times were 5, 15 and 30 min then 1, 2, 4, 6, 8, 12 and 24 h.
Following collection, blood samples were centrifuged and the plasma fraction analysed for concentration of test compound by LCMS. Oral bioavailability and half-life calculations from these studies were obtained using Phoenix WinNonlin (v8.0) and are shown below: […]

A further series addresses FXa (Homo sapiens (Human), UniProt P00742). Description: Determination of related protease inhibition: FXa (fluorogenic substrate at Km). The class given is biochemical. To be noted: 25° C. In a few lines:
as §1

The next series concerns the target Thrombin (Homo sapiens (Human), UniProt P00734). Description: Determination of related protease inhibition: Thrombin (fluorogenic substrate at Km). Conditions: 25° C. The format is biochemical. Summed up: as §1
For a further series, the target named is FXIa (Homo sapiens (Human), UniProt P03951). The series can be described thus: Determination of related protease inhibition: FXIa (fixed substrate concentration of 100 μM). Conditions: 25° C. The format is biochemical. As to the method: Determination of Related Protease Inhibition
Sequence of FXIa (P03951 388-625): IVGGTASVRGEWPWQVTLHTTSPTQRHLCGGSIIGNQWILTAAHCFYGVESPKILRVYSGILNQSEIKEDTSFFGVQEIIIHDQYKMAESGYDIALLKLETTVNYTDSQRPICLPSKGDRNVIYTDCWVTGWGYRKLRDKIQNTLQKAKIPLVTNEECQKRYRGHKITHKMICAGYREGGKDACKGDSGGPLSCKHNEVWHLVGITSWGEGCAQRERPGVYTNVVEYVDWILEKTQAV
Sequence of FXIa (P03951 19-387 partner): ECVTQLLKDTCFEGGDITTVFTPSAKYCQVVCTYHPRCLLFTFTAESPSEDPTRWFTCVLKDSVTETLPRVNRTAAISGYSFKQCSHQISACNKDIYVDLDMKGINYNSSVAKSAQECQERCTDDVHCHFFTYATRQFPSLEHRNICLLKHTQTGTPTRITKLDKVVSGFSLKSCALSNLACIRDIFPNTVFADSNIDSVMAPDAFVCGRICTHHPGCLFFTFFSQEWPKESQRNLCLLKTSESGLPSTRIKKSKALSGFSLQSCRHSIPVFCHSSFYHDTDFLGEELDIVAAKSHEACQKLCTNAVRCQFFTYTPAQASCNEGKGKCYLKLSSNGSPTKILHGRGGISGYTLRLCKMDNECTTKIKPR
In vitro inhibition of related proteases was determined using an ([…] assay based on standard literature methods (see e.g. Shori et al., Biochem. Pharmacol., 1992, 43, 1209; Bouckaert et al., European Journal of Medicinal Chemistry 110 (2016) 181). Human serine protease enzymes Plasma Kallikrein, KLK1, FXa, Plasmin, Thrombin and Trypsin were assayed for enzymatic activity using an appropriate fluorogenic substrate at Km concentration, FXIa at fixed substrate concentration of 100 μM, and various concentrations of the test compound. Protease activity was measured by monitoring the accumulation of liberated fluorescence from the substrate over […]. The linear rate of fluorescence increase per minute was expressed as percentage (%) activity. IC50 values were calculated as the concentration of inhibitor giving 50% inhibition of the uninhibited enzyme activity (100%).

The target in the next series is KLK1 (Homo sapiens (Human), UniProt P06870). Description: Determination of related protease inhibition: KLK1 (fluorogenic substrate at Km). To be noted: 25° C. The format is biochemical. Summed up: as §1
Sequence of KLK1 (P06870 25-262): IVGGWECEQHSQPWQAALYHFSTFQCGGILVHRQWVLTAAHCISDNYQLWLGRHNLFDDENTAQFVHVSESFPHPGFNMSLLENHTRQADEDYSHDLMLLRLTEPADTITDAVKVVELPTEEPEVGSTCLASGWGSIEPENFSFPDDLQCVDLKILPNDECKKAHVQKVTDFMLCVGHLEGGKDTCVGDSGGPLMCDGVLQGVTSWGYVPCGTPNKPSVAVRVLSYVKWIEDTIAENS

Sequence of Plasma Kallikrein (P03952 391-638): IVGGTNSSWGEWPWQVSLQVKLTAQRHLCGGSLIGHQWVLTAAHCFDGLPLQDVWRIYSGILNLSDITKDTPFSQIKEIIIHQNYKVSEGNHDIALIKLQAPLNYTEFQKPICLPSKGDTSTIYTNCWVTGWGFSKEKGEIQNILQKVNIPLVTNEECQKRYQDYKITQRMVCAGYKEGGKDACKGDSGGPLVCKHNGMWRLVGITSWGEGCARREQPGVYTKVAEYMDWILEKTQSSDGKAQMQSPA
Sequence of Plasma Kallikrein (P03952 20-390 partner): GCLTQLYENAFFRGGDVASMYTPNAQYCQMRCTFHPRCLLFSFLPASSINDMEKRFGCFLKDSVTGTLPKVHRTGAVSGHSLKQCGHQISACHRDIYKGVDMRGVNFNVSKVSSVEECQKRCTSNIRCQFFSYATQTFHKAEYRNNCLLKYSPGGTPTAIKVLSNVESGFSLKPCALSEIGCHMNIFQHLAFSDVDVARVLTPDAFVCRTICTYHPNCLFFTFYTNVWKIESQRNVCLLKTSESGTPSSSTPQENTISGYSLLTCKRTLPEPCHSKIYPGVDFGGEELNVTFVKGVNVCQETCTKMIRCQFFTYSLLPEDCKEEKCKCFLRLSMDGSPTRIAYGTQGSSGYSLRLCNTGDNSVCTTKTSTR
Sequence of FXa (P00742 235-488): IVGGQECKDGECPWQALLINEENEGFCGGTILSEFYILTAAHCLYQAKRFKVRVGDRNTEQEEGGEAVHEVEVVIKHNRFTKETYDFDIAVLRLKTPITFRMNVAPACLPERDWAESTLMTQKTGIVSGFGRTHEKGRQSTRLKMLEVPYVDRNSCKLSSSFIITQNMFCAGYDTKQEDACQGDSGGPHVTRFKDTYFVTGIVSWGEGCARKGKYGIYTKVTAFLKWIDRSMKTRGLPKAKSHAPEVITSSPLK
Sequence of FXa (P00742 41-179 partner): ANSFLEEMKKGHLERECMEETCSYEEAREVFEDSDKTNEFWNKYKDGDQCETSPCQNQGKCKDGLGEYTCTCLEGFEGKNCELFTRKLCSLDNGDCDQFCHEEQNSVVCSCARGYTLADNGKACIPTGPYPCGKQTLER
Sequence of Human Factor XIIa (P00748 373-615): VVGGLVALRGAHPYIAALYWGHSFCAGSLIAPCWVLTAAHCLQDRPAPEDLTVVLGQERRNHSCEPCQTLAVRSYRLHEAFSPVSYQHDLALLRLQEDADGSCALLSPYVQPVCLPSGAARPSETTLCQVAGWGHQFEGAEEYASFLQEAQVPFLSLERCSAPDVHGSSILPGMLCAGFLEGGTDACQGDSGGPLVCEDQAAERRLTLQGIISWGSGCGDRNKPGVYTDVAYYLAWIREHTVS

Regarding `CC(C)N1CCC(COc2cc(CNc3cccc4c(N)nccc34)ccn2)CC1` [Example 4299, N5-[[2-[(1-isopropyl-4-piperidyl)methoxy]-4-pyridyl]methyl]isoquinoline-1,5-diamine], the 50% inhibitory concentration (IC50) (as a rule, the concentration at which inhibition is half-maximal) at Human Factor XIIa is 0.1 to 0.3 µM. For the same compound, the IC50 at Plasma Kallikrein was more than 4 µM. Moreover, in series [1], the half-life (in general, the time in which the quantity being followed falls by half) is 10.1 h and the bioavailability (commonly dose-corrected exposure relative to a reference, in per cent) worked out at 8.3%.
`Cn1ccc(COc2cc(CNc3cccc4c(N)nccc34)ccn2)cc1=O` [Example 4301, 4-[[4-[[(1-Amino-5-isoquinolyl)amino]methyl]-2-pyridyl]oxymethyl]-1-methyl-pyridin-2-one]: the IC50 at Human Factor XIIa fell in the range of 0.3 to 1 µM. The IC50 at Plasma Kallikrein is more than 4 µM. In addition, in series [1], the half-life worked out at 2.19 h and the bioavailability was found to be 8.5%.
As to `CN1CCC(CCc2ccc(CNc3cccc4c(N)nccc34)cc2)CC1` [Example 2178, 5-N-({4-[2-(1-methylpiperidin-4-yl)ethyl]phenyl}methyl)isoquinoline-1,5-diamine], the IC50 against Human Factor XIIa is 0.01 to 0.1 µM; on Plasma Kallikrein, 10 to 40 µM; at FXa, more than 40 µM; on Thrombin, more than 40 µM; against FXIa, more than 40 µM.
For the compound `Nc1nccc2cc(NCc3ccc(OCC4CCn5ccnc5C4)nc3)ccc12` (stereo not drawn) [Example 1006, N6-((6-((5,6,7,8-tetrahydroimidazo[1,2-a]pyridin-7-yl)methoxy)pyridin-3-yl)methyl)isoquinoline-1,6-diamine], the IC50 was 0.1 to 0.3 µM against Human Factor XIIa; 1 to 3 µM at Plasma Kallikrein; 1 to 3 µM against FXa; 3 to 10 µM on Thrombin; more than 40 µM on FXIa.
Consider `CC(C)N1CC2(CN(Cc3ccc(CNc4ccc5c(N)nccc5c4)c(F)c3)C2)C1` [Example 1037, 6-N-{[2-fluoro-4-({6-isopropyl-2,6-diazaspiro[3.3]heptan-2-yl}methyl)phenyl]methyl}isoquinoline-1,6-diamine], for which the IC50 against Human Factor XIIa is 0.3 to 1 µM; at Plasma Kallikrein it was 10 to 40 µM; against KLK1, 3 to 10 µM; against FXa, more than 40 µM; on Thrombin, 10 to 40 µM; on FXIa, more than 40 µM.
Take `CN1CCC(OCc2ccc(CNc3ccc4c(N)nccc4c3)cc2)C(F)(F)C1` (stereo not drawn) [Example 2194, N6-(4-(((3,3-difluoro-1-methylpiperidin-4-yl)oxy)methyl)benzyl)isoquinoline-1,6-diamine]: the IC50 was 1 to 3 µM on Human Factor XIIa; 10 to 40 µM on Plasma Kallikrein; 10 to 40 µM on FXa; 10 to 40 µM against Thrombin; more than 40 µM on FXIa.
Consider `CN1CCC(OCc2ccc(CNc3ccc4c(N)nccc4c3)cc2)CC1` [Example 2185, N6-(4-(((1-methylpiperidin-4-yl)oxy)methyl)benzyl)isoquinoline-1,6-diamine], for which the IC50 on Human Factor XIIa was 0.1 to 0.3 µM; on Plasma Kallikrein, 3 to 10 µM; on FXa, 3 to 10 µM; against Thrombin, 3 to 10 µM; at FXIa, more than 40 µM.
Turning to `Nc1nccc2c(NCc3ccnc(OCC4CCn5ccnc5C4)c3)cccc12` (stereo not drawn) [Example 4298, N5-((2-((5,6,7,8-tetrahydroimidazo[1,2-a]pyridin-7-yl)methoxy)pyridin-4-yl)methyl)isoquinoline-1,5-diamine], the IC50 was 0.01 to 0.1 µM at Human Factor XIIa; more than 40 µM on Plasma Kallikrein; 3 to 10 µM against KLK1; more than 40 µM against Thrombin; 10 to 40 µM against FXIa.
For `CN1CCC(OCc2ccc(CNc3ccc4c(N)nccc4c3)c(Cl)c2)CC1` [Example 2192, N6-(2-chloro-4-(((1-methylpiperidin-4-yl)oxy)methyl)benzyl)isoquinoline-1,6-diamine], the IC50 on Human Factor XIIa was 0.1 to 0.3 µM; at Plasma Kallikrein it was 3 to 10 µM; against FXa, 1 to 3 µM; against Thrombin, 3 to 10 µM; against FXIa, more than 40 µM.
On to `CN1CCC(COc2cc(CNc3ccc4c(N)nccc4c3)ccn2)CC1` [Example 4261, N6-((2-((1-methylpiperidin-4-yl)methoxy)pyridin-4-yl)methyl)isoquinoline-1,6-diamine], for which the IC50 at Human Factor XIIa is 0.01 to 0.1 µM; at Plasma Kallikrein it was 3 to 10 µM; against FXa, 0.3 to 1 µM; at Thrombin it was 3 to 10 µM; against FXIa it was more than 20 µM.
For the compound `CC(C)N1C[C@H]2C[C@@H]1CN2CCc1ccc(CNc2cccc3c(N)nccc23)c(F)c1` (stereo in doubt) [Example 2213, N5-[[2-fluoro-4-[2-[(1R,4R)-5-isopropyl-2,5-diazabicyclo[2.2.1]heptan-2-yl]ethyl]phenyl]methyl]isoquinoline-1,5-diamine], the IC50 against Human Factor XIIa is 0.1 to 0.3 µM; on Plasma Kallikrein it was 10 to 40 µM; on KLK1 it was 10 to 40 µM; against FXa, more than 40 µM; against Thrombin, more than 40 µM; at FXIa it was more than 40 µM.
Consider `CN1CCC(COc2ccc(CNc3ccc4c(N)nccc4c3)cn2)CC1` [Example 1005, N6-((6-((1-methylpiperidin-4-yl)methoxy)pyridin-3-yl)methyl)isoquinoline-1,6-diamine], for which the IC50 at Human Factor XIIa is 0.1 to 0.3 µM; at Plasma Kallikrein it was 3 to 10 µM; on FXa it was 3 to 10 µM; against Thrombin, 10 to 40 µM; against FXIa it was more than 40 µM.
On to `CN1CCC(OCc2ccc(CNc3ccc4cnccc4c3)cc2)CC1` [Example 2193, N-(4-(((1-methylpiperidin-4-yl)oxy)methyl)benzyl)isoquinolin-6-amine], for which the half-inhibitory concentration (IC50) at Human Factor XIIa is 3 to 10 µM; on Plasma Kallikrein, more than 20 µM; against FXa it was more than 20 µM; against Thrombin it was more than 20 µM; against FXIa, more than 20 µM.
As to `CN1CCC(COc2ncc(CNc3ccc4c(N)nccc4c3)cn2)CC1` [Example 1013, 6-N-({2-[(1-methylpiperidin-4-yl)methoxy]pyrimidin-5-yl}methyl)isoquinoline-1,6-diamine], the IC50 against Human Factor XIIa is 0.1 to 0.3 µM; on Plasma Kallikrein it was 3 to 10 µM; on FXa it was 3 to 10 µM; on Thrombin, 3 to 10 µM; against FXIa it was more than 20 µM.
Take `CN1CCC(CCn2cc(CNc3ccc4c(N)nccc4c3)cn2)CC1` [Example 3254, N6-((1-(2-(1-methylpiperidin-4-yl)ethyl)-1H-pyrazol-4-yl)methyl)isoquinoline-1,6-diamine]: the IC50 is 0.3 to 1 µM at Human Factor XIIa; 3 to 10 µM at Plasma Kallikrein; 3 to 10 µM against FXa; 3 to 10 µM against Thrombin; more than 20 µM against FXIa.
As to `CCN1CCC(OCc2ccc(CNc3ccc4c(N)nccc4c3)c(F)c2)CC1` [Example 2202, 6-N-[(4-{[(1-ethylpiperidin-4-yl)oxy]methyl}-2-fluorophenyl)methyl]isoquinoline-1,6-diamine], the IC50 on Human Factor XIIa was 0.1 to 0.3 µM; on Plasma Kallikrein, 1 to 3 µM; on FXa, 3 to 10 µM; at Thrombin it was 3 to 10 µM; against FXIa, more than 20 µM.
In the case of `CC(C)N1CCC(COc2ccc(CNc3ccc4c(N)nccc4c3)cn2)CC1` [Example 1012, N6-((6-((1-isopropylpiperidin-4-yl)methoxy)pyridin-3-yl)methyl)isoquinoline-1,6-diamine], the IC50 at Human Factor XIIa was 0.1 to 0.3 µM; on Plasma Kallikrein it was 1 to 3 µM; against FXa, 10 to 40 µM; against Thrombin it was 3 to 10 µM; against FXIa it was more than 20 µM.
On to `CN1CCC(COc2ccc(CNc3ccc4cnccc4c3)cn2)CC1` [Example 1008, N-((6-((1-methylpiperidin-4-yl)methoxy)pyridin-3-yl)methyl)isoquinolin-6-amine], for which the half-inhibitory concentration (IC50) at Human Factor XIIa is 3 to 10 µM; at Plasma Kallikrein, 10 to 40 µM; against FXa, more than 20 µM; against Thrombin, more than 20 µM; on FXIa it was more than 20 µM.
